This note sets out measurements from patent US7205307B2, “Pyrimidines as novel openers of potassium ion channels” (Icagen, Inc., priority 2002, dated 2007).

Some results are limits rather than exact numbers.

One may read the EC50 as the concentration needed to bring the measured effect to its halfway point.

For this assay, the system named is voltage gated K+ channels. The assay is described as follows: test assay chosen for cells expressing voltage gated K+ channels (opening of voltage-gated potassium channels). The format is cell-based. The following applies: relative potency. As for the experimental part: Utilizing screening assays such as described above, compounds of the invention were tested for their ability to open voltage-gated potassium channels. The results of these assays are set forth in Table 1 in which the data are presented in terms of relative potency of the compounds tested to one another.
This example illustrates screening protocols for evaluating putative potassium channel agonists for the ability to open voltage-gated potassium channels.
NG108-15 cells, a mouse neuroblastoma, rat glioma hybrid cell line, functionally express M-currents (Robbins et al., J. Physiol. 451: 159–85 (1992). NG108-15 M-currents are likely comprised, at least in part, of KCNQ2, KCNQ3 and KCNQ5, since these genes are reportedly robustly expressed in differentiated NG108-15 cells (Selyanko et al., J. Neurosci. 19(18): 7742–56 (1999); Schroeder et al., J. Biol. Chem. 275(31): 24089–95 (2000)) and KCNQ3 dominant- negative constructs reduce M-current density in these cells (Selyanko et al., J. Neurosci. 22(5): RC212 (2002).
NG108–15 are maintained in DMEM (high glucose) supplemented with 10% fetal bovine serum, 0.05 mM pyridoxine, 0.1 mM hypoxanthine, 400 nM aminopterin, […] thymidine, 50 μgml^−1 gentamycin and 10 mM HEPES, in an incubator at 37° C. with a humidified atmosphere of 5% CO2. Cells are plated in 96 well plates and are differentiated by addition of 10 μM PGE1 and 50 μM isomethylbutylxanthine to the growth media prior to study.
Differentiated NG108–15 cells are loaded with voltage-sensitive dye by incubation in Earls Balanced Salt Solution (EBSS) containing […] DiBAC for 1 h. Following loading, drug solution containing […] DiBAC is added to each well. Changes in fluorescence are measured every 30 s for 25 min. The maximum change in fluorescence is measured and can be expressed as a percentage of the maximum response obtained in the presence of a positive control agent.
Alternatively, cells expressing voltage-gated K^+ channels, such as KCNQ2-like channels can be loaded with ^86Rb^+ by culture in media containing ^86RbCl. Following loading, culture media is removed and the cells are washed in EBSS to remove residual traces of ^86Rb^+. Cells are preincubated with drug (0.01–30 μM in EBSS) and then ^86Rb^+ efflux is stimulated by exposing cells to EBSS solution supplemented with a sub-maximal concentration of KCl (generally 7–20 mM) in the continued presence of drug. After a suitable efflux period, the EBSS/KCl solution is removed from the cells and the ^86Rb^+ content can be determined by Cherenkov counting (Wallac Trilux). Cells are then lysed with a SDS solution and the ^86Rb^+ content of the lysate can be determined. Percent ^86Rb^+ efflux is calculated according to: (^86Rb^+ content in EBSS/(^86Rb^+ content in EBSS+^86Rb^+ content of the lysate))*100
Efflux is normalized to the maximal ^86Rb^+ efflux (i.e., that which can be induced by a high concentration of KCl, generally 30–135 mM).
With `O=C(Nc1cnc(Cl)nc1)c1cccc(F)c1` [Compound 9, N-(2-chloro-pyrimidin-5-yl)-3-fluoro-benzamide], the EC50 was in the range of 1000 to 10000 nM.

Regarding `Cc1ccc(C(=O)Nc2cnc(Cl)nc2)cc1F` [Compound 90, N-(2-Chloro-pyrimidin-5-yl)-3-fluoro-4-methyl-benzamide], the EC50 lay in the range of 500 to 1000 nM. In turn, `O=C(Nc1cnc(Cl)nc1)c1ccc(Cl)c(F)c1` [Compound 44, 4-Chloro-N-(2-chloro-pyrimidin-5-yl)-3-fluoro-benzamide] gave a half-maximal effective concentration (EC50) of less than 500 nM. In turn, `O=C(Nc1cnc(Cl)nc1)c1ccc(F)c(F)c1` [Compound 4, N-(2-Chloro-pyrimidin-5-yl)-3,4-difluoro-benzamide] displayed an EC50 of 500 to 1000 nM.

Compound `CC(C)S(=O)(=O)c1ccc(C(=O)Nc2cnc(Cl)nc2)cc1F` [Compound 91, N-(5-amino-2-chloro-pyrimidine)-3-fluoro-4-(propane-2-sulfonyl)-benzamide] displayed a 50% effective concentration (EC50) of 1000 to 10000 nM. `Cc1ncc(NC(=O)c2ccc(F)c(F)c2)cn1` [Compound 8, 3,4-difluoro-N-(2-methyl-pyrimidin-5-yl)-benzamide] had an EC50 of 1000 to 10000 nM. The compound `O=C(Nc1cnc(Cl)nc1)c1cccc(C(F)(F)F)c1` [Compound 3, N-(2-chloro-pyrimidin-5-yl)-3-trifluoromethyl-benzamide] had an EC50 of 1000 to 10000 nM. As for `O=C(Nc1cnc(Cl)nc1)c1ccc(Cl)s1` [Compound 20, 5-Chloro-thiophene-2-carboxylic acid (2-chloro-pyrimidin-5-yl)-amide], the figure is 500 to 1000 nM. For the compound `O=C(Nc1cnc(Cl)nc1)c1cccc(Cl)c1` [Compound 5, 3-Chloro-N-(2-chloro-pyrimidin-5-yl)-benzamide], the EC50 was 1000 to 10000 nM.
